Measurements taken from patent US20070093520A1, “Method of treatment of diarrhea-predominant irritable bowel syndrome in a subject” (priority 2005, published 2007).

Tests used:
[1] = tested on: diarrhea-predominant IBS subjects; assay: 3007 Study: 12-lead ECG abnormalities; assay type: in vivo, human; details: Study 3007
Method: (§1) Resting 12-lead ECGs were performed at Day 1 (Visit 5 of the core protocol), Months 1, 6, and 12 (end of study or early termination visit). A centralized ECG service was used to evaluate all ECG tracings to supply consistent standardized ECG interpretation.
(§2) All analyses and summaries for ECG assessments were based on the evaluation performed in the central ECG laboratory.
For Study 3007, “baseline’ was defined as the pre-treatment period of core Study 3006 for subjects randomized to the cilansetron treatment group in Study 3006 and as the last post-Baseline visit of Study 3006 (normally Visit 5) for subjects randomized to the placebo group in Study 3006. The by-timepoint analyses were based on timepoints defined in Section 5.7.1.2.
(§3) Summary statistics are presented for PR, QRS, QT, and QTc intervals (Bazett and Fridericia formulas) and heart rate at each visit and at Endpoint, as well as for change from Baseline results at each post-Baseline visit and at Endpoint. Bazett's and Fridericia's QTc intervals were calculated based on the following formulas: Bazett: QTc intervals=QT/√RR Fridericia: QTc intervals=QT/^3√RR
(§4) Markedly abnormal ECG parameter values collected after the first dose of study medication and within 30 days of the last dose of study medication were summarized overall. The following criteria were applied to identify markedly abnormal parameter values: • PR ≧0.210 sec; • QRS ≧0.120 sec; • QTc >0.440 sec;
Heart rate ≧120 bpm or ≦50 bpm or change of ≧15 bpm.
The determination of markedly abnormal for QTc was carried out separately for both the Bazett correction and the Fridericia correction.
(§5) The incidence of treatment-emergent ECG abnormalities is presented overall and by type of abnormality. A treatment-emergent ECG abnormality was an abnormality identified by the ECG core laboratory that was not present at baseline (e.g., prior to the entry into core Study 3006), and was observed on or after initiation of study medication and up to 30 days after discontinuation of study medication. The incidence of treatment-emergent ECG abnormalities is presented by time interval, as well as overall for the entire treatment period. The incidence of treatment-emergent abnormalities is also presented in more general categories (e.g., presenting incidence of treatment-emergent myocardial infarction overall as well as by location), depending on whether it mitigates the interpretation.
The overall incidence of marked abnormalities for ECG parameters is presented overall by gender and overall.

[2] = tested on: diarrhea-predominant IBS subjects; details: human, in vivo
[3] = tested on: diarrhea-predominant IBS subjects; assay: 3008 Study: 12-lead ECG abnormalities; assay type: in vivo, human; details: 3007 Study
Method: as §1
For by-visit assessments, visit windows were assigned to the post-Baseline assessments as follows (vital signs, laboratory tests, and ECGs):
as §2, §3, §4, §5

Q: For `Cc1nccn1C[C@H]1CCc2c(c3cccc4c3n2CCC4)C1=O` [cilansetron, (R)-(−)-4,5,6,8,9,10-hexahydro-10-[(2-methyl-1H-imidazol-1-yl)methyl]-11H-pyrido-[3,2,1-jk]-carbazol-11-one], which “marked ECG abnormality: decreased heart rate” value ([1]; female subjects) is on record?
A: Its value is 6%.

Q: And the “marked ECG abnormality: prolonged QTc(B)” value ([1]; female subjects)?
A: Its value is 23%.

Q: What about the “marked ECG abnormality: prolonged QTc(F)” value ([1]; female subjects) of the same compound?
A: Its value is 10%.

Q: And the “treatment-emergent ECG abnormality: early repolarization-normal variant” value ([1]; female subjects)?
A: Its value is 2%.

Q: What about the “treatment-emergent ECG abnormality: poor R-wave progression” value ([1]; female subjects) of the same compound?
A: Its value is 13%.

Q: And the “treatment-emergent ECG abnormality: sinus arrhythmia” value ([1]; female subjects)?
A: The value was 19%.

Q: And the “marked ECG abnormality: decreased heart rate” value ([1]; male subjects)?
A: Its value is 13%.

Q: What about the “marked ECG abnormality: prolonged QTc(B)” value ([1]; male subjects) of the same compound?
A: The value was 6%.

Q: What about the “marked ECG abnormality: prolonged QTc(F)” value ([1]; male subjects) of the same compound?
A: The value was 3%.

Q: And the “treatment-emergent ECG abnormality: early repolarization-normal variant” value ([1]; male subjects)?
A: Its value is 19%.

Q: What about the “treatment-emergent ECG abnormality: poor R-wave progression” value ([1]; male subjects) of the same compound?
A: The value was 6%.

Q: And the “treatment-emergent ECG abnormality: sinus arrhythmia” value ([1]; male subjects)?
A: The value was 25%.

Q: What about the “incidence of prolonged QT interval” value ([1]; overall) of the same compound?
A: Its value is 4%.

Q: And the “marked ECG abnormality: heart rate decrease” value ([1]; overall)?
A: Its value is 14%.

Q: And the “marked ECG abnormality: heart rate increase” value ([1]; overall)?
A: The value was 15%.

Q: What about the “marked ECG abnormality: prolonged QTc(B)” value ([1]; overall) of the same compound?
A: Its value is 17%.

Q: And the “subjects with a post-Baseline marked ECG abnormality” value ([1]; overall)?
A: Its value is 50%.

Q: What about the “subjects with a treatment-emergent ECG abnormality” value ([1]; overall) of the same compound?
A: Its value is 62%.

Q: And the “treatment-emergent ECG abnormality: borderline LA enlargement” value ([1]; overall)?
A: Its value is 6%.

Q: What about the “treatment-emergent ECG abnormality: early R-wave transition” value ([1]; overall) of the same compound?
A: Its value is 6%.

Q: What about the “treatment-emergent ECG abnormality: early repolarization-normal variant” value ([1]; overall) of the same compound?
A: The value was 8%.

Q: What about the “treatment-emergent ECG abnormality: non-specific T-wave changes” value ([1]; overall) of the same compound?
A: Its value is 7%.

Q: What about the “treatment-emergent ECG abnormality: poor R-wave progression” value ([1]; overall) of the same compound?
A: The value was 11%.

Q: What about the “treatment-emergent ECG abnormality: sinus arrhythmia” value ([1]; overall) of the same compound?
A: The value was 21%.

Q: What about the “treatment-emergent ECG abnormality: sinus bradycardia” value ([1]; overall) of the same compound?
A: Its value is 10%.

Q: What about the “TEAE leading to permanent discontinuation: Oesophageal Reflux Aggravated” value ([2]; both) of the same compound?
A: Its value is 1 (<1%) n (%).

Q: What about the “TEAE: Oesophageal Reflux Aggravated” value ([2]; both, 52 weeks) of the same compound?
A: Its value is 3 (<1%) n (%).

Q: And the “TEAE: Gastrooesophageal Reflux Disease” value ([2]; 52 weeks)?
A: The value was 4 (<1%) n (%).

Q: And the “ECG abnormality: early-repolarization-normal variant” value [3]?
A: The value was over 10%.

Q: And the “ECG abnormality: sinus arrhythmia” value [3]?
A: Its value is over 10%.

Q: And the “ECG abnormality: sinus bradycardia” value [3]?
A: The value was over 10%.

Q: What about the “incidence of treatment-emergent markedly abnormal QTc(F)” value ([3]; 30 subjects) of the same compound?
A: The value was 2%.

Q: And the “incidence of treatment-emergent markedly abnormal QTc(B)” value ([3]; 105 subjects)?
A: Its value is 8%.
